From the CheMixHub ionic liquid set

Assay: xn = mol fraction of the nth substance listed

CC[NH3+].O=[N+]([O-])[O-] + O=[N+]([O-])[O-].O=[N+]([O-])[O-].[Ca+2] + O
100 kPa
Details | electrical conductivity [S/m] | viscosity [mPa·s]
223 K, x2 = 0.05128, x3 = 0.1778 | 0.001 | –
233 K, x2 = 0.05128, x3 = 0.1778 | 0.009 | –
233 K, x2 = 0.09755, x3 = 0.3019 | 0.009 | –
243 K, x2 = 0.05128, x3 = 0.1778 | 0.034 | –
243 K, x2 = 0.09755, x3 = 0.3019 | 0.034 | –
253 K, x2 = 0.05128, x3 = 0.1778 | 0.095 | –
253 K, x2 = 0.09755, x3 = 0.3019 | 0.095 | –
263 K, x2 = 0.05128, x3 = 0.1778 | 0.209 | –
263 K, x2 = 0.09755, x3 = 0.3019 | 0.209 | –
273 K, x2 = 0.05128, x3 = 0.1778 | 0.394 | –
273 K, x2 = 0.09755, x3 = 0.3019 | 0.394 | –
283 K, x2 = 0.05128, x3 = 0.1778 | 0.662 | –
283 K, x2 = 0.09755, x3 = 0.3019 | 0.662 | –
288.15 K, x2 = 0.05128, x3 = 0.1778 | – | 131.6
288.15 K, x2 = 0.09755, x3 = 0.3019 | – | 160.5
293 K, x2 = 0.05128, x3 = 0.1778 | 1.02 | –
293 K, x2 = 0.09755, x3 = 0.3019 | 1.02 | –
293.15 K, x2 = 0.05128, x3 = 0.1778 | – | 106.7
293.15 K, x2 = 0.09755, x3 = 0.3019 | – | 127.9
298.15 K, x2 = 0.05128, x3 = 0.1778 | – | 87.1
298.15 K, x2 = 0.09755, x3 = 0.3019 | – | 102.8
303 K, x2 = 0.05128, x3 = 0.1778 | 1.47 | –
303 K, x2 = 0.09755, x3 = 0.3019 | 1.47 | –
303.15 K, x2 = 0.05128, x3 = 0.1778 | – | 71.6
303.15 K, x2 = 0.09755, x3 = 0.3019 | – | 83.2
308.15 K, x2 = 0.05128, x3 = 0.1778 | – | 59.2
308.15 K, x2 = 0.09755, x3 = 0.3019 | – | 67.8
313 K, x2 = 0.05128, x3 = 0.1778 | 2.01 | –
313 K, x2 = 0.09755, x3 = 0.3019 | 2.01 | –
313.15 K, x2 = 0.05128, x3 = 0.1778 | – | 49.3
313.15 K, x2 = 0.09755, x3 = 0.3019 | – | 55.59
323 K, x2 = 0.05128, x3 = 0.1778 | 2.64 | –
323 K, x2 = 0.09755, x3 = 0.3019 | 2.64 | –
333 K, x2 = 0.05128, x3 = 0.1778 | 3.35 | –
333 K, x2 = 0.09755, x3 = 0.3019 | 3.35 | –
343 K, x2 = 0.05128, x3 = 0.1778 | 4.13 | –
343 K, x2 = 0.09755, x3 = 0.3019 | 4.13 | –
353 K, x2 = 0.05128, x3 = 0.1778 | 4.98 | –
353 K, x2 = 0.09755, x3 = 0.3019 | 4.98 | –
363 K, x2 = 0.05128, x3 = 0.1778 | 5.89 | –
363 K, x2 = 0.09755, x3 = 0.3019 | 5.89 | –
373 K, x2 = 0.05128, x3 = 0.1778 | 6.84 | –
373 K, x2 = 0.09755, x3 = 0.3019 | 6.84 | –

CCCCCCCCCCCCCCCC[n+]1ccccc1.[Cl-] + CS(C)=O + O
electrical conductivity [S/m], 100 kPa
Details | 293.15 K | 298.15 K | 303.15 K | 308.15 K
x1 = 3.75e-06, x2 = 0.01199 | 0.0021 | 0.0024 | 0.0024 | 0.0026
x1 = 3.9e-06, x2 = 0.02499 | 0.0019 | 0.002 | 0.0023 | 0.0023
x1 = 4.07e-06, x2 = 0.03911 | 0.0015 | 0.0016 | 0.0017 | 0.0019
x1 = 4.26e-06, x2 = 0.05452 | 0.0014 | 0.0015 | 0.0017 | 0.0019
x1 = 7.5e-06, x2 = 0.01199 | 0.0037 | 0.0042 | 0.0044 | 0.0047
x1 = 7.81e-06, x2 = 0.02499 | 0.0034 | 0.0036 | 0.0041 | 0.0044
x1 = 8.15e-06, x2 = 0.03911 | – | 0.0032 | 0.0037 | 0.0041
x1 = 8.52e-06, x2 = 0.05452 | 0.0027 | 0.0029 | – | 0.0037
x1 = 1.124e-05, x2 = 0.01199 | 0.0053 | 0.006 | 0.0065 | 0.0071
x1 = 1.171e-05, x2 = 0.02499 | 0.0049 | 0.0053 | 0.0059 | 0.0065
x1 = 1.222e-05, x2 = 0.03911 | 0.0045 | 0.0048 | 0.0055 | 0.0062
x1 = 1.278e-05, x2 = 0.05452 | 0.0041 | 0.0044 | 0.0049 | 0.0055
x1 = 1.499e-05, x2 = 0.01199 | 0.0071 | 0.0078 | 0.0086 | 0.0094
x1 = 1.562e-05, x2 = 0.02499 | 0.0063 | 0.0071 | 0.0077 | 0.0089
x1 = 1.63e-05, x2 = 0.03911 | 0.006 | 0.0065 | 0.0075 | 0.0086
x1 = 1.704e-05, x2 = 0.05452 | 0.0056 | 0.0059 | 0.0066 | 0.0075
x1 = 1.874e-05, x2 = 0.01199 | 0.0085 | 0.0095 | – | –
x1 = 1.952e-05, x2 = 0.02499 | 0.0078 | 0.0088 | 0.0097 | –
x1 = 2.037e-05, x2 = 0.03911 | 0.0075 | 0.0082 | 0.0095 | –
x1 = 2.13e-05, x2 = 0.05452 | 0.0069 | 0.0075 | 0.0083 | 0.0094
x1 = 2.249e-05, x2 = 0.01199 | 0.0095 | – | – | –
x1 = 2.343e-05, x2 = 0.02499 | 0.0095 | – | – | –
x1 = 2.444e-05, x2 = 0.03911 | 0.0091 | 0.0098 | – | –
x1 = 2.556e-05, x2 = 0.05452 | 0.0082 | 0.009 | 0.01 | –
x1 = 2.981e-05, x2 = 0.05452 | 0.0092 | – | – | –

CCCCCC[n+]1ccccc1.O=[N+]([O-])[O-] + CC#N
298.15 K, 101 kPa
Details | viscosity [mPa·s]
x1 = 0.004149 | 0.5468
x1 = 0.008252 | 0.6095
x1 = 0.0124 | 0.6478
x1 = 0.01616 | 0.6731
x1 = 0.02021 | 0.6913
x1 = 0.02422 | 0.7042
x1 = 0.02814 | 0.7132
x1 = 0.032 | 0.7169
x1 = 0.03564 | 0.7185
x1 = 0.03937 | 0.7176

C[P+](c1ccccc1)(c1ccccc1)c1ccccc1.[Br-] + OCC(O)CO
Details | electrical conductivity [S/m] | viscosity [mPa·s]
298 K, 101.3 kPa, x1 = 0.2 | – | 352
298.2 K, 101 kPa, x1 = 0.2 | – | 1894
322.36 K, 101 kPa, x2 = 0.75 | – | 272
327.54 K, 101 kPa, x2 = 0.75 | – | 204
328.15 K, 101.3 kPa, x2 = 0.6364 | 0.09 | 410

CC(=O)[O-].[Na+] + O + CCCC[n+]1ccn(C)c1.N#C[S-]
Details | viscosity [mPa·s]
323.15 K, 101 kPa, x1 = 0.08925, x2 = 0.9088 | 2.515

CCC(=O)[O-].CCOCCn1cc[n+](C)c1 + O
100 kPa
Details | electrical conductivity [S/m] | viscosity [mPa·s]
288.15 K, x1 = 0.8211 | 0.244 | 56.95
288.15 K, x1 = 0.85 | 0.209 | 62.86
288.15 K, x1 = 0.8812 | 0.178 | 69.98
288.15 K, x1 = 0.9123 | 0.148 | 77.3
288.15 K, x1 = 0.9441 | 0.118 | 85.4
288.15 K, x1 = 1 | 0.067 | 96.2
293.15 K, x1 = 0.8211 | 0.285 | 43.77
293.15 K, x1 = 0.85 | 0.255 | 48.37
293.15 K, x1 = 0.8812 | 0.228 | 53.31
293.15 K, x1 = 0.9123 | 0.202 | 58.97
293.15 K, x1 = 0.9441 | 0.177 | 64.74
293.15 K, x1 = 1 | 0.132 | 72.77
298.15 K, x1 = 0.8211 | 0.332 | 34.4
298.15 K, x1 = 0.85 | 0.305 | 37.68
298.15 K, x1 = 0.8812 | 0.28 | 41.51
298.15 K, x1 = 0.9123 | 0.258 | 45.4
298.15 K, x1 = 0.9441 | 0.236 | 49.8
298.15 K, x1 = 1 | 0.196 | 55.65
303.15 K, x1 = 0.8211 | 0.425 | 27.21
303.15 K, x1 = 0.85 | 0.399 | 29.76
303.15 K, x1 = 0.8812 | 0.371 | 32.63
303.15 K, x1 = 0.9123 | 0.349 | 35.7
303.15 K, x1 = 0.9441 | 0.326 | 39.01
303.15 K, x1 = 1 | 0.285 | 43.51
308.15 K, x1 = 0.8211 | 0.539 | 22.04
308.15 K, x1 = 0.85 | 0.507 | 23.97
308.15 K, x1 = 0.8812 | 0.478 | 26.44
308.15 K, x1 = 0.9123 | 0.451 | 28.78
308.15 K, x1 = 0.9441 | 0.425 | 30.96
308.15 K, x1 = 1 | 0.378 | 34.6
313.15 K, x1 = 0.8211 | 0.647 | 17.65
313.15 K, x1 = 0.85 | 0.617 | 19.48
313.15 K, x1 = 0.8812 | 0.588 | 21.34
313.15 K, x1 = 0.9123 | 0.561 | 22.96
313.15 K, x1 = 0.9441 | 0.534 | 24.58
313.15 K, x1 = 1 | 0.488 | 27.45
318.15 K, x1 = 0.8211 | 0.775 | 14.34
318.15 K, x1 = 0.85 | 0.747 | 15.58
318.15 K, x1 = 0.8812 | 0.718 | 17.15
318.15 K, x1 = 0.9123 | 0.691 | 18.49
318.15 K, x1 = 0.9441 | 0.664 | 19.86
318.15 K, x1 = 1 | 0.619 | 22.11
